Reference: paper PMC3913652 (PLoS ONE, 2014)

Assays:
rat GLP-1 receptor = molecular target: T1, rat GLP-1 receptor (Rattus norvegicus, UniProt P32301); test: GLP-1 receptor functional assay (cAMP); format: cell-based; details: 6–23 clone 6 cells, HBSS 0.1% BSA, 250 µM IBMX, 30 minutes, quadruplicates
T1 construct: 6–23 clone 6 cells endogenously expressing the rat GLP-1 receptor; endogenous in cells; host or cells: 6-23 clone 6 cells
T1 sequence (P32301 22-463): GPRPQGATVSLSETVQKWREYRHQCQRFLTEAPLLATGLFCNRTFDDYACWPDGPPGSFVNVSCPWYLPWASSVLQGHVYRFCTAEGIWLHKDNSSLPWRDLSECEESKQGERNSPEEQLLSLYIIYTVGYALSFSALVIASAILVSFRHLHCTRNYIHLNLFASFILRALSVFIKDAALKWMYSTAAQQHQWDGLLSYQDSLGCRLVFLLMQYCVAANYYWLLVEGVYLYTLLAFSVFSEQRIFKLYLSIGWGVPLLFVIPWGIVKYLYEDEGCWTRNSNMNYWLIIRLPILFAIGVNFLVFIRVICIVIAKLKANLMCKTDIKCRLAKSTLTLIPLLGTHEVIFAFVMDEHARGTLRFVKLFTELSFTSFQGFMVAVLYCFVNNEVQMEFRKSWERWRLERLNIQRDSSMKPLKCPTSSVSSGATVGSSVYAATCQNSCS
Procedure: Following 30 minutes incubation, the cAMP was measured using the cAMP Dynamic 2 assay (Cisbio US, Bedford, MA) as per the manufacturer’s instructions. cAMP was detected by a decrease in time-resolved fluorescence energy transfer using a GeniousPro plate reader (Tecan US, San Jose, CA).
Results are presented as means ± SEM, graphed and analyzed using GraphPad Prism 5®. The potency of peptides in the in vitro functional assay and in an OGTT was determined by the analysis of concentration-response curves using non-linear regression analysis.

[1] = Stability in pancreatic digestive enzyme mix; format: in vitro ADME; details: 50 mM phosphate buffer pH 6.8, peptide 30 mM, 20:1 peptide to pancreatic mixture, 37°C, reverse-phase HPLC, AUC 0–2 h as % remaining vs stable control ± SEM, n = 3 (exenatide, [Leu^14]exenatide-ABP n = 2)
Procedure: Stability of peptides was also assessed in a mixture of amylase, lipase and protease (pancreatin, Cat.# P7545-25 g, Sigma-Aldrich, St. Louis, MO), which are digestive enzymes produced by pancreatic exocrine cells. Peptides (30 mM) in 50 mM phosphate buffer (pH 6.8) and citrate buffers (pH 4 & pH 5) were incubated for 2 hours in pancreatic mixture at 37°C (20∶1 ratio of peptide to pancreatic mixture) (n = 3). The enzymatic reaction was stopped with the addition of 0.2 N HCl (final concentration of peptide 10 mM) at each time point.

**Q.** Which results are given for `CC[C@H](C)[C@H](NC(=O)[C@H](Cc1c[nH]cn1)NC(=O)[C@H](CC(C)C)NC(=O)[C@H](CCCCN)NC(=O)[C@H](CC(C)C)NC(=O)[C@H](C)NC(=O)[C@H](CCC(=O)O)NC(=O)[C@@H](NC(=O)CNC(=O)[C@H](CCC(=O)O)NC(=O)[C@@H](NC(=O)[C@@H](NC(=O)[C@H](CCCCN)NC(=O)[C@H](C)NC(=O)[C@H](CCCCN)NC(=O)[C@H](CC(N)=O)NC(=O)[C@@H](NC(=O)[C@H](CC(C)C)NC(=O)[C@H](CCCNC(=N)N)NC(=O)[C@H](CCCCN)NC(=O)[C@H](Cc1ccc(O)cc1)NC(=O)[C@H](Cc1ccccc1)NC(=O)[C@H](CC(=O)O)NC(=O)[C@H](CO)NC(=O)[C@@H](NC(=O)CNC(=O)[C@H](Cc1ccc(O)cc1)NC(=O)[C@H](CCCCN)NC(=O)[C@H](CC(=O)O)NC(=O)[C@H](CC(C)C)NC(=O)[C@H](CCC(=O)O)NC(=O)[C@H](CCCNC(=N)N)NC(=O)[C@H](CC(N)=O)NC(=O)[C@H](C)NC(=O)[C@H](CC(C)C)NC(=O)[C@@H](NC(=O)[C@H](CCCCN)NC(=O)[C@H](C)NC(=O)[C@H](CCC(=O)O)NC(=O)[C@H](C)NC(=O)[C@@H](N)CC(C)C)C(C)C)C(C)C)[C@@H](C)CC)[C@@H](C)O)C(C)C)C(C)C)C(=O)N[C@@H](CC(C)C)C(=O)N[C@@H](C)C(=O)N[C@@H](C)C(=O)N[C@@H](CC(C)C)C(=O)N1CCC[C@H]1C(=O)O` [ABD035]?
**A.** GLP-1 Receptor Functional Assay EC50 (rat GLP-1 receptor): not active; 2 h Stability in Pancreatin Mix (%) pH 6.8 [1]: 10±2%
